Molecular target: dipeptidyl peptidase-IV (DPP-IV) (Homo sapiens, UniProt P27487)
Assay: in vitro enzyme inhibition assay, Gly-Pro-p-nitroanilide substrate
Format: biochemical

dipeptidyl peptidase-IV (DPP-IV), sequence (P27487 39-766): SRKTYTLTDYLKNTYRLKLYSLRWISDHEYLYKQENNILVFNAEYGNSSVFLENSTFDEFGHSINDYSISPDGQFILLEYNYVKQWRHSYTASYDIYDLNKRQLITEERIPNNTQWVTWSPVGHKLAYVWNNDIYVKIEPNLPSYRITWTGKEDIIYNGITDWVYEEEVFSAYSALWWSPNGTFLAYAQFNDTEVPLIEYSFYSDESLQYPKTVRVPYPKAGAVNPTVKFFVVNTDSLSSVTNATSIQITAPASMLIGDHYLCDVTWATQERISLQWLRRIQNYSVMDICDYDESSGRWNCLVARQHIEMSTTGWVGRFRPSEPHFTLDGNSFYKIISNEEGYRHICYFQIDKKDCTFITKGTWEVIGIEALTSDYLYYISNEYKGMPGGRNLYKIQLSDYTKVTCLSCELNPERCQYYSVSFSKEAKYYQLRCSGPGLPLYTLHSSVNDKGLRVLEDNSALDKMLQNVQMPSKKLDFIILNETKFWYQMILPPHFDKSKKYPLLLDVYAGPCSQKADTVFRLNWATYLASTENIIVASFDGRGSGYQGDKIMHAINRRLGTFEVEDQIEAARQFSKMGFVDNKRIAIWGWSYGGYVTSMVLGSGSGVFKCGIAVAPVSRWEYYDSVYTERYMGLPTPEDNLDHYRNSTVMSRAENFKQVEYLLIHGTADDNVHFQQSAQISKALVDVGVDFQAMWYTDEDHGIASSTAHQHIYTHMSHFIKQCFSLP

IC50: 10.5 µM
Compound: CC(C)=CCC/C(C)=C/Cc1c(O)ccc(C(=O)/C=C/c2ccc(O)cc2)c1O [XA, xanthoangelol]
